The results in this text go back to ChEMBL document CHEMBL3046054, “Chemico-biological investigation of rhizome essential oil of Zingiber morannative to Northeast India” (Med Chem Res, 2013).

As a reminder, the IC50 is the concentration that inhibits the measured activity by half.

Test [1] relates to HeLa. Nature of the test: Induction of apoptosis in Homo sapiens (human) HeLa cells assessed as detachment from substratum at <40 ug/ml after 24 hr by light microscopic analysis. It counts as functional, cell-based.
Test [2] deals with HeLa. Nature of the test: Induction of apoptosis in Homo sapiens (human) HeLa cells assessed as loss of cell to cell contact at <40 ug/ml after 24 hr by light microscopic analysis. It counts as functional, cell-based.
Test [3] deals with HeLa. Nature of the test: Induction of necrosis in Homo sapiens (human) HeLa cells assessed as increase in nucleus volume at >50 ug/ml after 24 hr by light microscopic analysis. The format is functional, cell-based.
In test [4] the test system is HeLa. The experiment in a line: Induction of necrosis in Homo sapiens (human) HeLa cells assessed as dissolution of cytoplasmic membrane at >50 ug/ml after 24 hr by light microscopic analysis. It counts as functional, cell-based.
In test [5] the test system is HeLa. Nature of the test: Cytotoxicity against Homo sapiens (human) HeLa cells assessed as cell death at 10 to 100 ug/ml after 48 hr by light microscopic analysis. It counts as functional, cell-based.
The subject of test [6] is HeLa. Nature of the test: Induction of apoptosis in Homo sapiens (human) HeLa cells assessed as membrane blebbing at <40 ug/ml after 24 hr by light microscopic analysis. The format is functional, cell-based.
Test [7] concerns HeLa. Nature of the test: Cytotoxicity against Homo sapiens (human) HeLa cells assessed as decrease in cell viability at 10 to 100 ug/ml after 24 hr by acridine orange/ethidium bromide-based inverted fluorescence microscopic analysis. The format is functional.
Test [8] concerns HeLa. The experiment in a line: Induction of apoptosis in Homo sapiens (human) HeLa cells assessed as floating cells at 10 to 50 ug/ml after 24 hr by light microscopic analysis. The format is functional, cell-based.
Test [9] deals with HeLa. Nature of the test: Induction of necrosis in Homo sapiens (human) HeLa cells assessed as increase in cytoplasmic vacuolization at >50 ug/ml after 24 hr by light microscopic analysis. The format is functional, cell-based.
Test [10] concerns HeLa. Nature of the test: Growth inhibition of Homo sapiens (human) HeLa cells at 10 to 30 ug/ml up to 3 days by MTT assay. The format is functional.
Test [11] relates to HeLa. The experiment in a line: Induction of necrosis in Homo sapiens (human) HeLa cells assessed as increase in cytoplasmic volume at >50 ug/ml after 24 hr by light microscopic analysis. The format is functional, cell-based.
The test system of test [12] is HeLa. The experiment in a line: Induction of apoptosis in Homo sapiens (human) HeLa cells assessed as rounded cells at 10 to 50 ug/ml after 24 hr by light microscopic analysis. It counts as functional, cell-based.
For test [13], the system named is HeLa. Nature of the test: Induction of necrosis in Homo sapiens (human) HeLa cells assessed as dissolution of nuclear membrane at >50 ug/ml after 24 hr by light microscopic analysis. It counts as functional, cell-based.
The test system of test [14] is HeLa. Nature of the test: Cytotoxicity against Homo sapiens (human) HeLa cells up to 3 days by MTT assay. It counts as functional, cell-based. The following applies: for IC50: 72 h. For orientation: Tetrazolium dyes change colour on reduction, which living cells bring about.
Test [15] has as its system HeLa. Nature of the test: Induction of necrosis in Homo sapiens (human) HeLa cells assessed as chromatin flocculation at >50 ug/ml after 24 hr by light microscopic analysis. The format is functional, cell-based.
For test [16], the system named is HeLa. The experiment in a line: Induction of apoptosis in Homo sapiens (human) HeLa cells assessed as fragmented nuclei at 10 to 100 ug/ml after 24 hr by acridine orange/ethidium bromide-based inverted fluorescence microscopic analysis. The format is functional, cell-based.
Test [17] deals with HeLa. Nature of the test: Induction of apoptosis in Homo sapiens (human) HeLa cells assessed as rounded cells at 10 to 100 ug/ml after 48 hr by light microscopic analysis. It counts as functional, cell-based.
For test [18], the system named is HeLa. The experiment in a line: Induction of apoptosis in Homo sapiens (human) HeLa cells assessed as apoptotic bodies at <40 ug/ml after 24 hr by light microscopic analysis. The format is functional, cell-based.
Test [19] has as its system HeLa. Nature of the test: Induction of apoptosis in Homo sapiens (human) HeLa cells assessed as apoptotic bodies at <55 ug/ml after 24 hr by light microscopic analysis. The format is functional, cell-based.
Test [20] relates to HeLa. The experiment in a line: Induction of apoptosis in Homo sapiens (human) HeLa cells assessed as loss of cell to cell contact at <55 ug/ml after 24 hr by light microscopic analysis. The format is functional, cell-based.
For test [21], the system named is HeLa. Nature of the test: Induction of apoptosis in Homo sapiens (human) HeLa cells assessed as membrane blebbing at <55 ug/ml after 24 hr by light microscopic analysis. It counts as functional, cell-based.
The subject of test [22] is HeLa. The experiment in a line: Induction of apoptosis in Homo sapiens (human) HeLa cells assessed as detachment from substratum at <55 ug/ml after 24 hr by light microscopic analysis. The format is functional, cell-based.

≈ marks a conversion by molar mass, not a printed value. Calls of active or inactive are those of the source. The calls are words filed in the database; no cut-off is given here.

Turning to `CC(C)=CCCC(C)=CC=O`, the result in the test on HeLa [1], in the test with HeLa [2], with HeLa [3], with HeLa [4], in the test with HeLa [5] and with HeLa [6] was Active. Further, the result in the test on HeLa [7], in the test on HeLa [8], with HeLa [9], with HeLa [11], in the test with HeLa [12] and in the test with HeLa [13] was Active. Also, the result in the test with HeLa [15], with HeLa [16], in the test on HeLa [17] and in the test on HeLa [18] was Active. Also, in the test with HeLa [10], the “growth inhibition (GI)” value was found to be 60%. Further, the Activity entry in the test with HeLa [14] was “Dose-dependent effect”. This compound also gave an IC50 in the test on HeLa [14] of 39.6 µg/mL (≈ 260 µM).
On to `C=C1C2CCC(C2)C1(C)C` (configuration not stated) [CAMPHENE], for which the outcome in the test with HeLa [1], in the test on HeLa [2], in the test on HeLa [3], in the test on HeLa [4], in the test with HeLa [5] and with HeLa [6] was Active. Moreover, the result in the test with HeLa [7], with HeLa [8], with HeLa [9], in the test with HeLa [11], in the test on HeLa [12] and in the test on HeLa [13] was Active. The outcome in the test with HeLa [15], in the test with HeLa [16], in the test with HeLa [17] and with HeLa [18] was Active. Further, the “growth inhibition (GI)” value with HeLa [10] came out at 60%. Besides, in the test on HeLa [14], the Activity entry was “Dose-dependent effect”. The compound further came in with an IC50 with HeLa [14] of 38.5 µg/mL (≈ 283 µM).
On to `C=CC(C)(O)CCC=C(C)C` (configuration not stated) [LINALOOL], for which the outcome in the test with HeLa [19], with HeLa [3], in the test with HeLa [20], with HeLa [4], with HeLa [5] and in the test with HeLa [7] was Active. Also, the outcome with HeLa [8], with HeLa [9], with HeLa [11], in the test with HeLa [12], in the test on HeLa [13] and in the test on HeLa [15] was Active. The result with HeLa [21], in the test with HeLa [16], with HeLa [17] and with HeLa [22] was Active. In the test on HeLa [10], the “growth inhibition (GI)” value stood at 60%. In addition, in the test on HeLa [14], the Activity result is “Dose-dependent effect”. In the test with HeLa [14], this compound gave an IC50 of 55.4 µg/mL (≈ 359 µM).
